Reference: patent US7368422B2, “Semi-synthetic rearranged vancomycin/desmethyl-vancomycin-based glycopeptides with antibiotic activity” (Novartis Vaccines and Diagnostics Inc., priority 2005, dated 2008)
Values after ≈ are worked out from the molar mass of the structure shown.

Columns and labels:
Format in all cases: cell-based
[1] = system: methicillin-susceptible Staphylococus aureus (MSSA); assay: MIC, NCCLS microdilution broth procedure, MSSA
Description: (§1) The following table identifies specific species of compounds according to the present invention and information concerning their associated antibacterial activity. The antibacterial activity of a compound in accordance with the present invention, chloro-biphenyl-rearranged norvacomycin (B), was tested and compared to unmodified vancomycin (Van) and norvancoycin (Nor). MIC (minimum inhibitory concentration) was measured according to NCCLS standards using the microdilution broth prodcedure. Serial dilutions of the compounds were placed in a 96-well microplate containing Mueller-Hinton medium. Based on absorbance of 600 nm, diluted overnight cultures were placed in the wells at a final concentration of 5×10^5 cfu/mL. The plate was then placed in a culture box at 35° C. The next day, MIC was determined by visual observation of the plates. The glycopeptides were tested against a variety of strains well known in the art for such testing, including methicillin-susceptible Staphylococus aureus (MSSA), methicillin-susceptible Staphylococus epidermidis (MSSE), methicillin-resistant Staphylococus aureus (MRSA), methicllin-resistant Staphylococus epidermidis (MRSE), and glycopeptide-intermediate Staphylococus aureus (GISA). Results are shown in the Table 1 as minimum inhibitory concentration (MIC) in units of μg/ml: […]

[2] = system: methicillin-resistant Staphylococus aureus (MRSA); assay: MIC, NCCLS microdilution broth procedure, MRSA
Description: as §1

[3] = system: methicillin-susceptible Staphylococus epidermidis (MSSE); assay: MIC, NCCLS microdilution broth procedure, MSSE
Description: as §1

[4] = system: methicllin-resistant Staphylococus epidermidis (MRSE); assay: MIC, NCCLS microdilution broth procedure, MRSE
Description: as §1

[5] = system: glycopeptide-intermediate Staphylococus aureus (GISA) (V); assay: MIC, NCCLS microdilution broth procedure, GISA (V)
Description: as §1

[6] = system: glycopeptide-intermediate Staphylococus aureus (GISA) (D); assay: MIC, NCCLS microdilution broth procedure, GISA (D)
Description: as §1

Structure (SMILES) | minimum inhibitory concentration (MIC) ([1]; MSSA strain # 68) [mg/L] | minimum inhibitory concentration (MIC) ([1]; MSSA strain # 83) [mg/L] | minimum inhibitory concentration (MIC) ([2]; MRSA strain # 134) [mg/L] | minimum inhibitory concentration (MIC) ([2]; MRSA strain # 143) [mg/L] | minimum inhibitory concentration (MIC) ([3]; MSSE strain # 3) [mg/L] | minimum inhibitory concentration (MIC) ([3]; MSSE strain # 10) [mg/L] | minimum inhibitory concentration (MIC) ([4]; MRSE strain # 24) [mg/L] | minimum inhibitory concentration (MIC) ([4]; MRSE strain # 25) [mg/L] | minimum inhibitory concentration (MIC) ([4]; MRSE strain # 26) [mg/L] | minimum inhibitory concentration (MIC) ([5]; GISA (V) strain # 68) [mg/L] | minimum inhibitory concentration (MIC) ([5]; GISA (V) strain # 143) [mg/L] | minimum inhibitory concentration (MIC) ([6]; GISA (D) strain # 68) [mg/L] | minimum inhibitory concentration (MIC) ([6]; GISA (D) strain # 143) [mg/L]
CC(C)C[C@@H](N)C(=O)N[C@H]1C(=O)N[C@@H](CC(N)=O)C(=O)N[C@H]2C(=O)N[C@H]3C(=O)N[C@H](C(=O)N[C@H](C(=O)O)c4cc(O)cc(O)c4-c4cc3ccc4O)[C@H](O)c3ccc(c(Cl)c3)Oc3cc2cc(c3O[C@@H]2O[C@H](CO)[C@@H](O)[C@H](O)[C@H]2O[C@H]2C[C@](C)(N)[C@H](O)[C@H](C)O2)Oc2ccc(cc2Cl)[C@H]1O [Nor, norvancoycin] | 2 (≈ 1.39 µM) | 2 (≈ 1.39 µM) | 2 (≈ 1.39 µM) | 2 (≈ 1.39 µM) | 2 (≈ 1.39 µM) | 2 (≈ 1.39 µM) | 2 (≈ 1.39 µM) | 2 (≈ 1.39 µM) | 2 (≈ 1.39 µM) | 4 (≈ 2.79 µM) | 8 (≈ 5.57 µM) | 4 (≈ 2.79 µM) | 4 (≈ 2.79 µM)
CN[C@H](CC(C)C)C(=O)N[C@H]1C(=O)N[C@@H](CC(N)=O)C(=O)N[C@H]2C(=O)N[C@H]3C(=O)N[C@H](C(=O)N[C@H](C(=O)O)c4cc(O)cc(O)c4-c4cc3ccc4O)[C@H](O)c3ccc(c(Cl)c3)Oc3cc2cc(c3O[C@@H]2O[C@H](CO)[C@@H](O)[C@H](O)[C@H]2O[C@H]2C[C@](C)(N)[C@H](O)[C@H](C)O2)Oc2ccc(cc2Cl)[C@H]1O [Van, vancomycin] | 2 (≈ 1.38 µM) | 2 (≈ 1.38 µM) | 2 (≈ 1.38 µM) | 2 (≈ 1.38 µM) | 2 (≈ 1.38 µM) | 2 (≈ 1.38 µM) | 2 (≈ 1.38 µM) | 2 (≈ 1.38 µM) | 2 (≈ 1.38 µM) | 8 (≈ 5.52 µM) | 8 (≈ 5.52 µM) | 8 (≈ 5.52 µM) | 4 (≈ 2.76 µM)
